Common to all, as to assay type: in vivo
Assay [1] has as its system male ICR mouse. Description: Acetic acid-induced writhing test in mouse. The settings on record: po, p.o, acetic acid i.p. 1 hour after dosing, writhing counted for 10 minutes, read-out: Writhing Test Suppression of pain response. The procedure, abridged: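 Test material given orally at 10 mg/kg to male mice (30–35 g); 1 h later 0.8% acetic acid injected i.p. Writhes counted over 10 min immediately afterwards; analgesia expressed as percent suppression of writhing versus vehicle group.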
A general note: An intraperitoneal irritant provokes the stretching counted in writhing tests.

Assay [2] deals with male ICR mouse. Put plainly: Head twitch potentiation induced by 5-HTP (5-HTP potentiation test) in mouse. Conditions: po, 0.5 h, p.o, 5-HTP 80 mg/kg + Carbidopa 25 mg/kg i.p. 30 minutes after dosing, head twitches counted for 2 minutes, negative = 5-HT2A antagonist, read-out: 5-HTP Potentiation Increase rate in Head Twitch No. The protocol:
When 5-hydroxy-L-tryptophan (5-HTP) is administered into a mouse, a head twitch phenomenon is observed since serotonin is increasingly secreted in the mouse. […] By using this principle, it is possible to search an effect of the representative antidepressant agent. A test material dissolved in a suitable vehicle was orally administered to a male ICR mouse weighing 20 to 25 g at an amount of 30 mg/kg. After 30 minutes of the oral administration, 5-HTP (80 mg/kg) and 5-HTP peripheral decarbozylase inhibitor ‘Carbidopa’ (25 mg/kg) were intraperitoneally administered to the mouse. After 30 minutes of the intraperitoneal administration, the mouse was put into an observation cage, and head twitches of the mouse were counted for 2 minutes. The anti-depression effect of the test material is represented by the ‘Increase rate in Head Twitch No.’ {[(Head Twitch No. of Test material-administered group−Head Twitch No. of vehicle-administered group)/(Head Twitch No. of vehicle-administered group)]×100%}. […] In addition to the selective serotonin reuptake inhibitor (SSRI) that has been widely used as an antidepressant agent in the clinical fields, it was tested that 5-HT2A antagonists such as nefazodone and trazodone also have an antidepressant effect.

Assay [3] concerns male ICR mouse. Description: Elevated plus maze (EPM) test in mouse. The settings on record: po, p.o, 1 hour after dosing, 5 minutes observation, read-out: Elevated Plus Maze Change index in Open-Arm Time. The source says: Elevated plus maze (EPM) is one of representative models that examine an anti-anxiety activity of a test material. Equipment used for an EPM test has a crossroad shape raised in a high position off the ground, and is configured in such a cliff shape that both sides of one road are protected with high walls and the other road is free from the wall. Among them, the road in the cliff shape is referred to as an ‘open arm,’ and the road protected by the walls is referred to as a ‘close arm.’ In this case, a level of the anxiety of a mouse may be measured by determining in which arm the mouse stays longer. In general, the mouse stays longer in the close arm than the open arm, but a mouse treated with a medicine showing an anti-anxiety effect stays relatively longer in the open arm. A test material dissolved in a suitable vehicle was orally administered to a male ICR mouse weighing 20 to 25 g at an amount of 10 mg/kg. After 1 hour of the oral administration, the mouse was put on the center of an EPM equipment to measure how long the mouse stays in the open arm within a time range of 5 minutes. The anti-anxiety effect of the test material is represented by the ‘Change index in Open-Arm Time’ {[(open arm duration in test material-administered group−open arm duration in vehicle-administered group)/(open arm duration in vehicle administered group)]×100%}.

For assay [4], the system named is male ICR mouse. Description: Hot plate test in mouse. The settings on record: po, p.o, 1 hour after dosing, hot plate 55° C., read-out: Hot Plate Test Increase in latency of avoidance response. The procedure, abridged: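 Male ICR mice (25–30 g) dosed orally at 30 mg/kg and placed on a 55° C. hot plate 1 h later. Latency to forefoot or hind-leg avoidance (flinching, licking, jumping) recorded; effect expressed as % increase in latency over vehicle group.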
A general note: Hot-plate and tail-flick tests time the reaction to a heat stimulus.

Structures can show the parent of a compound that is named as a salt.

Our source for the inhibition in vivo and change in vivo values is patent US8901116B2, “Method for treating pain, anxiety or depression using carbamoyloxy alkanoyl piperazine compound” (SK Biopharmaceuticals Co., Ltd., priority 2007, dated 2014).

For `NC(=O)OC(CC(=O)N1CCN(c2ccccc2)CC1)c1cccc(Br)c1` (stereo not drawn) [Example 46, carbamic acid 1-(3-bromo-phenyl)-3-oxo-3-(4-phenyl-piperazin-1-yl)-propyl ester], the inhibition in vivo at 10 mg/kg in the assay on male ICR mouse [1] came out at 71.3%. The figures for the change in vivo at 30 mg/kg in the assay on male ICR mouse [2] and in the assay on male ICR mouse [4] were 40.3% and 33.1%, respectively. Besides, the change in vivo at 10 mg/kg in the assay with male ICR mouse [3] was 5.7%.
As to `COc1ccc(N2CCN(C(=O)C[C@@H](OC(N)=O)c3ccccc3)CC2)cc1OC` [Example 71, (R)-carbamic acid 3-[4-(3,4-dimethoxy-phenyl)-piperazin-1-yl]-3-oxo-1-phenyl-propyl ester], in the assay on male ICR mouse [1], the inhibition in vivo at 10 mg/kg came to 46.5%. Also, the change in vivo at 30 mg/kg came out at 127% in the assay on male ICR mouse [2] and 55.8% in the assay on male ICR mouse [4]. Further, the change in vivo at 10 mg/kg in the assay with male ICR mouse [3] amounted to 125%.
Take `NC(=O)OC(c1ccccc1)C(F)(F)C(=O)N1CCN(c2ccccc2)CC1` (stereo not drawn) [Example 47, carbamic acid 2,2-difluoro-3-oxo-1-phenyl-3-(4-phenyl-piperazin-1-yl)-propyl ester]: the inhibition in vivo at 10 mg/kg with male ICR mouse [1] was 28.8%. Besides, the change in vivo at 30 mg/kg was 22.5% in the assay on male ICR mouse [2] and 27.2% with male ICR mouse [4]. In addition, in the assay with male ICR mouse [3], the change in vivo at 10 mg/kg was 21.4%.
`NC(=O)OC(CC(=O)N1CCN(c2ccc(C(F)(F)F)cc2)CC1)c1ccccc1` (stereo not drawn) [Example 28, carbamic acid 3-oxo-1-phenyl-3-[4-(4-trifluoromethyl-phenyl)-piperazin-1-yl]-propyl ester]: the inhibition in vivo at 10 mg/kg in the assay on male ICR mouse [1] stood at 55.6%. Further, the change in vivo at 30 mg/kg with male ICR mouse [2] was -12.5%; with male ICR mouse [4], 3.1%. In addition, the change in vivo at 10 mg/kg with male ICR mouse [3] is -1.4%.
For the compound `NC(=O)OC(CC(=O)N1CCN(c2ccccc2)CC1)c1ccc(Cl)cc1` (stereo not drawn) [Example 16, carbamic acid 1-(4-chloro-phenyl)-3-oxo-3-(4-phenyl-piperazin-1-yl)-propyl ester], the inhibition in vivo at 10 mg/kg with male ICR mouse [1] worked out at 37.3%. The figures for the change in vivo at 30 mg/kg in the assay with male ICR mouse [2] and in the assay on male ICR mouse [4] were 140% and 19.5%, respectively. Also, the change in vivo at 10 mg/kg in the assay on male ICR mouse [3] was found to be 1.3%.
On to `NC(=O)O[C@@H](CC(=O)N1CCN(c2ccc(Cl)cc2)CC1)c1ccccc1` [Example 85, (S)-carbamic acid 3-[4-(4-chloro)-phenylpiperazin-1-yl]-3-oxo-1-phenyl-propyl ester], for which the inhibition in vivo at 10 mg/kg in the assay on male ICR mouse [1] was found to be 52%. For the same compound, the change in vivo at 30 mg/kg in the assay with male ICR mouse [2] came to 222%; in the assay on male ICR mouse [4], 25.3%. In the assay with male ICR mouse [3], the change in vivo at 10 mg/kg came out at 37%.
For the compound `NC(=O)O[C@H](CC(=O)N1CCN(c2ccc(F)c(F)c2)CC1)c1ccccc1` [Example 67, (R)-carbamic acid 3-[4-(3,4-difluoro-phenyl)-piperazin-1-yl]-3-oxo-1-phenyl-propyl ester], the inhibition in vivo at 10 mg/kg in the assay on male ICR mouse [1] was 45.1%. Besides, the change in vivo at 30 mg/kg stood at 58.8% with male ICR mouse [2] and 34.3% with male ICR mouse [4]. The change in vivo at 10 mg/kg in the assay on male ICR mouse [3] was determined as 34.3%.
Regarding `NC(=O)OC(CC(=O)N1CCN(c2ccc(F)cc2)CC1)c1ccccc1` (stereo not drawn) [Example 1, carbamic acid 3-[4-(4-fluoro-phenyl)-piperazin-1-yl]-3-oxo-1-phenyl-propyl ester], in the assay with male ICR mouse [1], the inhibition in vivo at 10 mg/kg came out at 73.5%. For the same compound, the change in vivo at 30 mg/kg in the assay with male ICR mouse [2] was -65.7%; with male ICR mouse [4], 17%. Also, in the assay on male ICR mouse [3], the change in vivo at 10 mg/kg was determined as 25.6%.
Take `NC(=O)OC(CC(=O)N1CCN(c2ccccc2)CC1)c1ccoc1` (stereo not drawn) [Example 49, carbamic acid-1-furan-3-yl-3-oxo-3-(4-phenyl-piperazin-1-yl)-propyl ester]: the inhibition in vivo at 10 mg/kg in the assay with male ICR mouse [1] is 34.4%. Moreover, the change in vivo at 30 mg/kg was -20% in the assay on male ICR mouse [2] and 20.6% in the assay on male ICR mouse [4]. Further, the change in vivo at 10 mg/kg with male ICR mouse [3] worked out at 48.9%.
As for `NC(=O)OC(CC(=O)N1CCN(c2ccc(O)cc2)CC1)c1ccccc1` (stereo not drawn) [Example 18, carbamic acid 3-[4-(4-hydroxy-phenyl)-piperazin-1-yl]-3-oxo-1-phenyl-propyl ester], the inhibition in vivo at 10 mg/kg in the assay with male ICR mouse [1] came to 30.6%. Moreover, the change in vivo at 30 mg/kg was -23.4% with male ICR mouse [2] and 26.4% in the assay on male ICR mouse [4]. Moreover, the change in vivo at 10 mg/kg with male ICR mouse [3] stood at 16.1%.
Regarding `CC(C)(C)c1ccc(N2CCN(C(=O)CC(OC(N)=O)c3ccccc3)CC2)cc1` (stereo not drawn) [Example 17, carbamic acid 3-[4-(4-tert-butyl-phenyl)-piperazin-1-yl]-3-oxo-1-phenyl-propyl ester], the inhibition in vivo at 10 mg/kg in the assay with male ICR mouse [1] amounted to 25.3%. Also, the change in vivo at 30 mg/kg with male ICR mouse [2] was 10%; in the assay with male ICR mouse [4], 29.4%. Moreover, the change in vivo at 10 mg/kg in the assay on male ICR mouse [3] came to 34%.
As to `Cc1ccc(N2CCN(C(=O)CC(OC(N)=O)c3ccccc3)CC2)cc1` (stereo not drawn) [Example 4, carbamic acid 3-oxo-1-phenyl-3-(4-p-tolyl-piperazin-1-yl)-propyl ester], in the assay on male ICR mouse [1], the inhibition in vivo at 10 mg/kg is 74.6%. Moreover, the figures for the change in vivo at 30 mg/kg in the assay on male ICR mouse [2] and in the assay on male ICR mouse [4] were -7.1% and 34.1%, respectively. The change in vivo at 10 mg/kg with male ICR mouse [3] is 41.1%.
As for `NC(=O)O[C@H](CC(=O)N1CCN(c2ccc(F)cc2)CC1)c1ccccc1` [Example 62, (R)-carbamic acid 3-[4-(4-fluoro-phenyl)-piperazin-1-yl]-3-oxo-1-phenyl-propyl ester], the inhibition in vivo at 10 mg/kg in the assay on male ICR mouse [1] was 66.7%. Besides, the change in vivo at 30 mg/kg worked out at 0.8% with male ICR mouse [2] and 13.8% with male ICR mouse [4]. The change in vivo at 10 mg/kg in the assay with male ICR mouse [3] was 2.7%.
`NC(=O)OC(CC(=O)N1CCN(c2ccccc2F)CC1)c1ccccc1` (stereo not drawn) [Example 29, carbamic acid 3-[4-(2-fluoro-phenyl)-piperazin-1-yl]-3-oxo-1-phenyl-propyl ester]: the inhibition in vivo at 10 mg/kg in the assay with male ICR mouse [1] was found to be 34.5%. Further, the change in vivo at 30 mg/kg came out at 14.3% in the assay on male ICR mouse [2] and 0% with male ICR mouse [4]. Besides, the change in vivo at 10 mg/kg in the assay on male ICR mouse [3] was found to be 92.3%.
With `COc1cc(OC)cc(N2CCN(C(=O)CC(OC(N)=O)c3ccccc3)CC2)c1` (stereo not drawn) [Example 11, carbamic acid 3-[4-(3,5-dimethoxy-phenyl)-piperazin-1-yl]-3-oxo-1-phenyl-propyl ester], the inhibition in vivo at 10 mg/kg in the assay on male ICR mouse [1] stood at 5.5%. The change in vivo at 30 mg/kg with male ICR mouse [2] is 31.3%; with male ICR mouse [4], 46.1%. Further, the change in vivo at 10 mg/kg in the assay with male ICR mouse [3] was 19.8%.
On to `NC(=O)OC(CC(=O)N1CCN(c2ccc(F)cc2F)CC1)c1ccccc1` (stereo not drawn) [Example 13, carbamic acid 3-[4-(2,4-difluoro-phenyl)-piperazin-1-yl]-3-oxo-1-phenyl-propyl ester], for which the inhibition in vivo at 10 mg/kg with male ICR mouse [1] turned out to be 64%. Moreover, the change in vivo at 30 mg/kg in the assay on male ICR mouse [2] is -60%; in the assay with male ICR mouse [4] it was 21.4%. Moreover, the change in vivo at 10 mg/kg in the assay on male ICR mouse [3] was found to be 12.6%.
The corresponding values for `COc1ccc(N2CCN(C(=O)CC(OC(N)=O)c3ccc([N+](=O)[O-])cc3)CC2)cc1OC` (stereo not drawn) [Example 36, carbamic acid 3-[4-(3,4-dimethoxy-phenyl)-piperazin-1-yl]-1-(4-nitro-phenyl)-3-oxo-propyl ester; hydrochloride] are 42%, 93.8%, 20.5% and 35.3%.
In the case of `NC(=O)OC(CC(=O)N1CCN(CCc2ccc(Cl)c(Cl)c2)CC1)c1ccccc1` (stereo not drawn) [Example 39, carbamic acid 3-{4-[2-(3,4-dichloro-phenyl)-ethyl]-piperazin-1-yl}-3-oxo-1-phenyl-propyl ester], the inhibition in vivo at 10 mg/kg with male ICR mouse [1] amounted to 23.2%. For the same compound, the change in vivo at 30 mg/kg is 319% with male ICR mouse [2] and 18.7% in the assay on male ICR mouse [4]. The change in vivo at 10 mg/kg in the assay on male ICR mouse [3] is 57.8%.
